Data: article PMC10352257, “In vivo effects of the alpha-synuclein misfolding inhibitor minzasolmin supports clinical development in Parkinson’s disease” (NPJ Parkinson's Disease, 2023)
Where two headings read alike, the source gives them in different places.

Columns and labels:
GFAP = assay: Immunolabeling of glial fibrillary acidic protein (GFAP), 3-month study; assay type: in vivo, mouse; conditions: for change in GFAP immunolabeling vs vehicle-treated Line 61 transgenic mice: cortex and hippocampus (P < 0.0001); for GFAP immunolabeling, mean: 3 months, adjusted P <0.0001
Description: (§1) A transgenic mouse model of Parkinson’s disease overexpressing human wild-type ASYN under the murine Thy-1 promoter on a mixed C57Bl/6 background was used in the present studies (commonly referred to Line 61)[49]. The Line 61 transgenic mouse model of Parkinson’s disease develops extensive accumulation of ASYN in areas relevant to Parkinson’s disease[49]–[51], neurodegeneration (as evidenced by loss of tyrosine hydroxylase[52],[53] and dopamine transporter immunoreactivity[18] in the striatum), inflammation, and both motor and non-motor functional deficits. Multiple cohorts of mice were transferred from the University of California, San Diego to a Neuropore-funded AAALAC-accredited vivarium facility per a laboratory service agreement between Neuropore Therapies, Inc. and the laboratory of Dr. Eliezer Masliah under institutional animal care and use committee (IACUC) Protocol S02221. All in vivo testing was conducted by Neuropore personnel under Explora Biosciences animal care and use protocol (ACUP) number E15-016-2. Three-month-old male transgenic and age-matched non-transgenic littermate control mice were used and housed up to 5 per cage. Animals received free access to food and water prior to the experiment. The vivarium ambient room temperature was monitored daily and kept within a range of 68–72 degrees Fahrenheit. Animals were kept on a 12:12 diurnal light cycle, with lights on at 0600.
(§2) Minzasolmin was dissolved in a vehicle solution consisting of 40% Captisol (CyDex Pharmaceuticals, Inc.; Kansas, USA) in sterile water and administered at a volume of 0.1 ml/20 g of body weight. Animals received a Monday–Friday daily intraperitoneal injection of vehicle, or 1 or 5 mg/kg minzasolmin for approximately 90 days. Animals received treatment up to and including a final injection 1 h prior to euthanasia. All study solutions were blind coded and experimenters were blinded to genotype and treatment group assignments for the duration of the study, ex vivo evaluations (i.e., neuropathology sample processing and imaging, videotape scoring) and through penultimate data analyses (i.e., data quality control with documented exclusions prior to unblinding; unblinding required for a priori pairwise comparisons).
All subjects were euthanized within 1 h of the last treatment and brain and blood were collected. Tissue processing and imaging methods were conducted as described previously[17],[18],[52] and performed under a lab service agreement between UCSD and Neuropore Therapies. All samples were blind coded to genotype and treatment group throughout immune-histological processing and imaging. The right hemibrain was post-fixed in phosphate-buffered 4% paraformaldehyde (pH 7.4) at 4 °C for 48 and then serially sectioned into […] thick […] sections using a vibratome. Sections were free-floated and incubated overnight at 4 °C with primary antibodies. To confirm the specificity of primary antibodies, control experiments were performed in which sections were incubated overnight in the absence of primary antibody, pre-immune serum, or primary antibody pre-adsorbed for 48 h with 20-fold excess of the corresponding peptide. Tissue collection, processing, and imaging methods were conducted as described previously. Briefly, the right hemibrain was post-fixed in phosphate-buffered 4% paraformaldehyde (pH 7.4) at 4 °C for 48 h, and then serially sectioned into 40 µm thick coronal sections using a vibratome. Sections were free-floated and incubated overnight at 4 °C with primary antibodies. To confirm the specificity of primary antibodies, control experiments were performed in which sections were incubated overnight in the absence of primary antibody (data not shown). Immunolabeled sections were imaged with a Zeiss 63× (N.A. 1.4) objective on an Axiovert 35 microscope (Zeiss, Germany). Immunolabeling was evaluated as a corrected optical density across a field of view. […]

[1] = Bioanalysis of compound levels in plasma and brain after long-term treatment; assay type: in vivo; conditions: mouse, ip, Line 61 transgenic mice, 1 h post final dose, mean ± S.E.M.
Protocol: as §2
All subjects were euthanized within 1 h of the last treatment and brain and blood were collected. Tissue processing and imaging methods were conducted as described previously[17],[18],[52] and performed under a lab service agreement between UCSD and Neuropore Therapies. All samples were blind coded to genotype and treatment group throughout immune-histological processing and imaging. The right hemibrain was post-fixed in phosphate-buffered 4% paraformaldehyde (pH 7.4) at 4 °C for 48 and then serially sectioned into […] thick sagittal sections using a vibratome. Sections were free-floated and incubated overnight at 4 °C with primary antibodies. To confirm the specificity of primary antibodies, control experiments were performed in which sections were incubated overnight in the absence of primary antibody, pre-immune serum, or primary antibody pre-adsorbed for 48 h with 20-fold excess of the corresponding peptide. Tissue collection, processing, and imaging methods were conducted as described previously. Briefly, the right hemibrain was post-fixed in phosphate-buffered 4% paraformaldehyde (pH 7.4) at 4 °C for 48 h, and then serially sectioned into 40 µm thick coronal sections using a vibratome. Sections were free-floated and incubated overnight at 4 °C with primary antibodies. To confirm the specificity of primary antibodies, control experiments were performed in which sections were incubated overnight in the absence of primary antibody (data not shown). Immunolabeled sections were imaged with a Zeiss 63× (N.A. 1.4) objective on an Axiovert 35 microscope (Zeiss, Germany). Immunolabeling was evaluated as a corrected optical density across a field of view. Summary tables of statistics for each measure are presented in Supplementary Tables 1–5.
Analysis of minzasolmin by HPLC-MS/MS in plasma and brain homogenate study subject samples was conducted by PRA Health Sciences (Lenexa, KS, USA). Group means were obtained using Graph Pad Prism v. […]

Line 61 transgenic mice = assay: Tolerability in the 3-month administration study; assay type: in vivo; conditions: 1 or 5 mg/kg i.p. once daily for 3 months; no apparent adverse effects on subject health
Description: as §1, with “[…].” for “Three-month-old male transgenic and age-matched non-transgenic littermate control mice were used and housed up to 5 per cage.”, “0600. […]” for “0600.”

Question: Which “change in GFAP immunolabeling vs vehicle-treated Line 61 transgenic mice” value (GFAP; 1 mg/kg) does the source give for `CCCC[C@H](Cc1c[nH]c2ccccc12)NC(=O)c1cnc(N2CCN(C)CC2)s1` [minzasolmin] here?
Answer: decreased

Question: What about the “change in GFAP immunolabeling vs vehicle-treated Line 61 transgenic mice” value (GFAP; 5 mg/kg) of the same compound?
Answer: decreased

Question: And the “effect of dose on GFAP levels, 1 vs. 5 mg/kg” value (GFAP; cortex and hippocampus)?
Answer: no statistically significant effect

Question: And the “GFAP immunolabeling, mean” value (GFAP; cortex, Line 61 tg/1 mg/kg (first group of that name), Line 61 tg/Vehicle 223.1)?
Answer: 155.9

Question: What about the “GFAP immunolabeling, mean” value (GFAP; cortex, Line 61 tg/1 mg/kg as printed (second group of that name), Line 61 tg/Vehicle 223.1) of the same compound?
Answer: 169.3

Question: And the “GFAP immunolabeling, mean” value (GFAP; hippocampus, Line 61 tg/1 mg/kg (first group of that name), Line 61 tg/Vehicle 350.8)?
Answer: 271.6

Question: What about the “GFAP immunolabeling, mean” value (GFAP; hippocampus, Line 61 tg/1 mg/kg as printed (second group of that name), Line 61 tg/Vehicle 350.8) of the same compound?
Answer: 289.7

Question: What about the concentration at 1 h ([1]; brain, 1 mg/kg i.p. daily about 90 days, read-out: [minzasolmin] Brain) of the same compound?
Answer: 12.1 ± 1.5 ng/g

Question: What about the concentration at 1 h ([1]; brain, 5 mg/kg i.p. daily about 90 days, read-out: [minzasolmin] Brain) of the same compound?
Answer: 69.5 ± 4.7 ng/g

Question: What about the concentration at 1 h ([1]; plasma, 1 mg/kg i.p. daily about 90 days, read-out: [minzasolmin] Plasma) of the same compound?
Answer: 72.3 ± 7.9 ng/mL

Question: And the concentration at 1 h ([1]; plasma, 5 mg/kg i.p. daily about 90 days, read-out: [minzasolmin] Plasma)?
Answer: 357 ± 16.8 ng/mL

Question: And the “tolerability of treatments for the duration of the experiment” value (Line 61 transgenic mice)?
Answer: well tolerated
